Like-named read-outs stand apart in the source and are kept apart here.
Assays:
[1] = log P by HPLC on reversed-phase column (EEC Directive 79/831 Annex V.A8); assay type: physicochemical; details: reversed-phase HPLC column (C18)
Method: The log P values were determined according to EEC Directive 79/831 Annex V.A8 by HPLC (highperformance liquid chromatography) on a reversed-phase column (C18). Temperature 43° C. The calibration is effected with unbranched alkan-2-ones (having 3 to 16 carbon atoms), for which the log P values are known. The determination of the M^+ by LC-MS in the acidic range was carried out at pH 2.7 using the mobile phases 0.1% aqueous formic acid and acetonitrile (contains 0.1% formic acid); linear gradient from 10% acetonitrile to 95% acetonitrile, instrument: Agilent 1100 LC system, Agilent MSD system, HTS PAL. The determination of the M^+ by LC-MS in the neutral range was carried out at pH 7.8 using the mobile phases 0.001 molar aqueous ammonium bicarbonate solution and acetonitrile; linear gradient from 10% acetonitrile to 95% acetonitrile. The log P values for the acidic range (as log P [a]) and/or for the neutral range (as log P [n]) were stated in the tables and preparation examples.

[2] = system: Musca domestica; test: Musca domestica test; assay type: in vivo; details: 48 h, adult houseflies, after 2 days, read-out: efficacy (kill in %)
Method: Musca domestica Test Solvent: dimethyl sulphoxide To produce a suitable preparation of active compound, 10 mg of active compound are mixed with 0.5 ml of dimethyl sulphoxide, and the concentrate is diluted with water to the desired concentration. Vessels containing a sponge treated with sugar solution and the active compound preparation of the desired concentration are populated with 10 adult houseflies (Musca domestica). After 2 days, the kill in % is determined. 100% means that all of the flies have been killed; 0% means that none of the flies have been killed.

[3] = system: Myzus persicae; test: Myzus persicae spray test (Chinese cabbage leaf discs); assay type: in vivo; details: foliar, 120 h, 500 g/ha, after 5-6 days, read-out: efficacy
Procedure, shortened: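 Chinese cabbage leaf discs infested with all stages of green peach aphid were sprayed with compound formulated in acetone/DMF and emulsifier-containing water. Efficacy in % was scored after 5-6 days, with 100% meaning all aphids killed and 0% none killed.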

[4] = system: Myzus persicae; test: Myzus persicae oral test; assay type: in vivo; details: 120 h, oral uptake, after 5 days, read-out: efficacy
Procedure, shortened: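 Compound dissolved in acetone, diluted in water, then mixed 50:150 μl with IPL41 insect medium (33%+15% sugar). Mixed-population green peach aphids feed through a parafilm seal on the solution; mortality scored as % efficacy after 5 days (100% = all killed).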

[5] = system: Meloidogyne incognita; test: Meloidogyne incognita test; assay type: in vivo; details: 336 h, lettuce, after 14 days, read-out: nematicidal efficacy (formation of galls)
Procedure, shortened: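 Active compound in acetone, diluted with water, added to sand-filled vessels with M. incognita eggs/larvae and lettuce seeds. After 14 days, efficacy scored by root gall formation: 100% = no galls, 0% = galls equal to untreated control.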

[6] = system: Phaedon cochleariae; test: Phaedon cochleariae spray test; assay type: in vivo; details: foliar, 168 h, Chinese cabbage leaf discs, larvae, after 7 days, read-out: efficacy
Procedure, shortened: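 Compound dissolved in solvent and diluted with water containing 1000 ppm emulsifier to test concentrations. Efficacy read after 7 days as % beetle larvae killed (100% all killed, 0% none).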

[7] = system: Tetranychus urticae; test: Tetranychus urticae spray test, OP-resistant; assay type: in vivo; details: foliar, 144 h, bean leaf discs, after 6 days, read-out: efficacy
Method: Tetranychus urticae—Spray Test, OP-Resistant
To produce a suitable preparation of active compound, 1 part by weight of active compound is dissolved using the specified parts by weight of solvent and made up with water containing an emulsifier concentration of 1000 ppm until the desired concentration is attained. To produce further test concentrations, the formulation is diluted with emulsifier-containing water.
Discs of bean leaves (Phaseolus vulgaris) infested with all stages of the greenhouse red spider mite (Tetranychus urticae) are sprayed with an active compound preparation of the desired concentration.
After 6 days, the efficacy in % is determined. 100% means that all the spider mites have been killed; 0% means that no spider mites have been killed.

[8] = system: Lucilia cuprina; test: Lucilia cuprina test; assay type: in vivo; details: 48 h, L1 larvae, after 2 days, read-out: efficacy (kill in %)
Method: Lucilia cuprina Test Solvent: dimethyl sulphoxide To produce a suitable preparation of active compound, 10 mg of active compound are mixed with 0.5 ml of dimethyl sulphoxide, and the concentrate is diluted with water to the desired concentration. About 20 L1 larvae of the Australian sheep blowfly (Lucilia cuprina) are transferred into a test vessel containing minced horsemeat and the active compound preparation of the desired concentration. After 2 days, the kill in % is determined. 100% means that all the larvae have been killed; 0% means that no larvae have been killed.

[9] = acidic range, pH 2.7, HPLC C18, 43° C., read-out: log P (acidic)
[10] = neutral range, pH 7.8, HPLC C18, 43° C., read-out: log P (neutral)

chromatographic logP [1, 10]	Compound	pest or weed control at 100 ppm [2] [%]	pest or weed control at 500 g/ha [3] [%]	pest or weed control at 20 ppm [4] [%]	pest or weed control at 20 ppm [5] [%]	pest or weed control at 500 g/ha [6] [%]	also measured
2	CCOC(=O)c1nc(-c2c(F)cccc2F)n(C)c1C [ethyl 2-(2,6-difluorophenyl)-1,5-dimethyl-1H-imidazole-4-carboxylate]						
3	Cn1c(C(=O)OC(C)(C)C)cnc1-c1c(F)cccc1F [tert-butyl 2-(2,6-difluorophenyl)-1-methyl-1H-imidazole-5-carboxylate]						
2.54	Cn1c(C(=O)OC(C)(C)C)cnc1Br [tert-butyl 2-bromo-1-methyl-1H-imidazole-5-carboxylate]						
2.3	Cn1cc(C(=O)OC(C)(C)C)nc1-c1c(F)cccc1F [tert-butyl 2-(2,6-difluorophenyl)-1-methyl-1H-imidazole-4-carboxylate]						
1.71	Cn1cncc1C(=O)OC(C)(C)C [tert-butyl 1-methyl-1H-imidazole-5-carboxylate]						
0.85	CCOC(=O)c1ncn(C)c1C [ethyl 1,5-dimethyl-1H-imidazole-4-carboxylate]						

Further lines, the compound ahead of its results:

Compound	chromatographic logP [1, 10]	pest or weed control at 100 ppm [2] [%]	pest or weed control at 500 g/ha [3] [%]	pest or weed control at 20 ppm [4] [%]	pest or weed control at 20 ppm [5] [%]	pest or weed control at 500 g/ha [6] [%]	also measured
CCOC(=O)c1nc(-c2c(F)cccc2F)[nH]c1CC [ethyl 2-(2,6-difluorophenyl)-5-ethyl-1H-imidazole-4-carboxylate]							chromatographic logP [1, 9]: 1.73
COc1ccc(F)cc1S(=O)(=O)NC(=O)c1cn(C)c(-c2c(F)cccc2Cl)n1 [Example 155]		80	90	100			
Cn1cc(C(=O)NS(=O)(=O)c2cc(C(F)(F)F)ccc2Cl)nc1-c1ccccc1Cl [Example 52]		80	90	100	90		
Cn1cc(C(=O)NS(=O)(=O)c2ccc(Cl)cc2Cl)nc1-c1c(F)cccc1F [Example 174]		90	100	100	100	83	
Cn1cnc(C(=O)OC(C)(C)C)c1 [tert-butyl 1-methyl-1H-imidazole-4-carboxylate]							chromatographic logP [1, 9]: 0.63
CCc1cccc(C(F)(F)F)c1S(=O)(=O)NC(=O)c1cn(C)c(-c2c(F)cccc2F)n1 [Example 337]		80	90	100	90	100	
Cn1c(C(=O)O)cnc1-c1c(F)cccc1F [2-(2,6-difluorophenyl)-1-methyl-1H-imidazole-5-carboxylic acid]							chromatographic logP [1, 9]: 0.46
Cn1cc(C(=O)OC(C)(C)C)nc1Br [tert-butyl 2-bromo-1-methyl-1H-imidazole-4-carboxylate]							chromatographic logP [1, 9]: 2.41
Cc1cc(S(=O)(=O)NC(=O)c2cn(C)c(-c3ccccc3Cl)n2)c(C)s1 [Example 217]			90	100	90	83	pest or weed control at 500 g/ha [7]: 100%
COc1ccc(Cl)c(S(=O)(=O)NC(=O)c2cn(C)c(-c3c(F)cccc3Cl)n2)c1 [Example 107]		100	100	100		100	pest or weed control at 100 ppm [8]: 100%
Cc1c(C(=O)O)nc(-c2c(F)cccc2F)n1C [2-(2,6-difluorophenyl)-1,5-dimethyl-1H-imidazole-4-carboxylic acid]	2						
COc1ccc(Cl)c(S(=O)(=O)NC(=O)c2cn(C)c(-c3c(Cl)cccc3Cl)n2)c1 [Example 101]			90	100	90	100	pest or weed control at 100 ppm [8]: 100%; pest or weed control at 500 g/ha [7]: 90%
CCOC(=O)c1nc(Br)n(C)c1C [Ethyl 2-Bromo-1,5-Dimethyl-1H-Imidazole-4-Carboxylate]	1.69						
COc1cc(C(=O)O)nn1-c1ccccc1Cl [1-(2-chlorophenyl)-5-methoxy-1H-pyrazole-3-carboxylic acid]							chromatographic logP [1, 9]: 1.63
COc1ccc(C)c(S(=O)(=O)NC(=O)c2cn(C)c(-c3ncccc3Cl)n2)c1 [Example 582]			100		90	83	pest or weed control at 500 g/ha [7]: 90%; pest or weed control at 4 ppm ([4]; 4 ppm): 100%
Cn1cc(C(=O)NS(=O)(=O)c2ccccc2Br)nc1-c1c(F)cccc1Cl [Example 152]		80	90	100	100	100	
CCc1[nH]c(-c2c(F)cccc2F)nc1C(=O)O [2-(2,6-difluorophenyl)-5-ethyl-1H-imidazole-4-carboxylic acid]	0.45						
Cn1cc(C(=O)NS(=O)(=O)c2c(Cl)cccc2Cl)nc1-c1cccc(Cl)c1Cl [Example 568]			100	100	90	83	pest or weed control at 500 g/ha [7]: 90%
CCOC(=O)c1cc(OC)n(-c2ccccc2Cl)n1 [ethyl 1-(2-chlorophenyl)-5-methoxy-1H-pyrazole-3-carboxylate]							chromatographic logP [1, 9]: 2.61
CCc1ccccc1S(=O)(=O)NC(=O)c1cn(C)c(-c2c(F)cccc2F)n1 [Example 185]		80	100	100	90		
Cn1cc(C(=O)O)nc1-c1c(F)cccc1F [2-(2,6-difluorophenyl)-1-methyl-1H-imidazole-4-carboxylic acid]	2.3						
Cc1ccccc1S(=O)(=O)NC(=O)c1nc(-c2ccccc2Cl)n(C)c1Cl [5-chloro-2-(2-chlorophenyl)-1-methyl-N-[(2-methylphenyl)sulphonyl]-1 Himidazole-4-carboxamide]							chromatographic logP [1, 9]: 3.17
Cc1ccc(Cl)cc1S(=O)(=O)NC(=O)c1cn(C)c(-c2c(F)cccc2F)n1 [Example 172]		90	90	100	100	100	
CCOC(=O)c1cc(O)n(-c2ccccc2Cl)n1 [ethyl 1-(2-chlorophenyl)-5-hydroxy-1H-pyrazole-3-carboxylate]							chromatographic logP [1, 9]: 1.75
COc1ccc(OC)c(S(=O)(=O)NC(=O)c2cn(C)c(-c3c(F)cccc3Cl)n2)c1 [Example 151]		100	100				
COc1ccc(Br)c(S(=O)(=O)NC(=O)c2cn(C)c(-c3c(F)cccc3Cl)n2)c1 [Example 153]		80	100	100	90	100	
Cc1ccccc1S(=O)(=O)NC(=O)c1cn(C)c(-c2ccccc2F)n1 [Example 32]		80	90	100	90		

From patent US20200288710A1, “SUBSTITUTED SULPHONAMIDES FOR CONTROLLING ANIMAL PESTS” (BAYER CROPSCIENCE AKTIENGESELLSCHAFT, priority 2016, published 2020)
